Measurements reported in ChEMBL document CHEMBL1201862, “PubChem BioAssay data set” (2004).
The source made the active and inactive calls. Cut-off read from the data, not from the text of the source, for most assays here: actives have a measured IC50 and inactives only a lower limit.

Legend:
[1] = molecular target: T1, SUMO-activating enzyme (Homo sapiens, UniProt Q9UBT2); experiment: inhibitors of in vitro SUMOylation cascade, primary screen, biochemical, HTRF, uHTS (AID 2006); assay type: protein-complex assay
[2] = molecular target: T1, SUMO-activating enzyme; experiment: SUMOylation inhibitor hit validation, confirmation, SUMOylation inhibitor project, biochemical, AlphaScreen (AID 2018); assay type: functional
[3] = MC4R antagonists, dose response, counter-screen for LGR2 antagonist project, cell-based, plate reader, cherry pick (AID 743444); assay type: functional;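 note: transfected HEK 293 cells stimulated with alpha-MSH peptide; potency of inhibitors of the alpha-MSH evoked signal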
[4] = LGR2 antagonists, dose response, cell-based, HEK293, CRE-luciferase reporter, cherry pick, set 2 (AID 743343); assay type: functional;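 note: transfected cells were stimulated with diluted bursicon conditioned medium after compound addition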
[5] = molecular target: Trypsin (Sus scrofa, UniProt P00761); experiment: porcine trypsin inhibitors, dose response, selectivity assay for Rce1 protease inhibitor project, biochemical, quenched peptide fluorescence, cherry-pick (AID 488789)
[6] = molecular target: Neurotensin receptor type 1 (Homo sapiens, UniProt P30989); assay type: functional;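 note: Image-based confirmatory dose-response assay measuring agonist activity at NTR1; NTR1-expressing U2OS osteosarcoma cells imaged for beta-arrestin GFP spot formation; agonist potency where compounds increase beta-arrestin recruitment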
[7] = Luminescence Cell-Based Dose Retest to Confirm Inhibitors of Cancer Stem Cells. [Related pubchem assays (depositor defined):AID2717, AID2721]; assay type: functional; settings: Homo sapiens
[8] = cytotoxicity toward NIH3T3 fibroblasts, dose response, counter-screen, cell-based, ATP luminescence, mouse fibroblasts (AID 2010); assay type: functional;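 note: cells exposed to compound for about 90 hours before reading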
[9] = inhibitors of intracellular T. cruzi replication, confirmation, NIH3T3 host cells, beta-gal luminescence (AID 2044); assay type: functional, cell-based;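 note: intracellular parasites grown in NIH/3T3 mouse fibroblasts as host cells; luminescent beta-galactosidase reporter signal from transgenic T. cruzi replicating inside host cells; inhibitors lower the luminescence signal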
[10] = molecular target: T2, Ubiquitin-conjugating enzyme E2 N (Homo sapiens, UniProt P61088); assay type: functional;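 note: Dose-response confirmation in a TR-FRET assay detecting UBC13-driven polyubiquitin chain formation, inhibition measured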
T2 sequence (P61088 whole entry): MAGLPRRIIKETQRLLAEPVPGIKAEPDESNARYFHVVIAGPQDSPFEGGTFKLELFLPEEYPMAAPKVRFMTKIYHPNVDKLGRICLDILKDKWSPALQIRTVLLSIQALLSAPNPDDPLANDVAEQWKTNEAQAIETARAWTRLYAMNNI

[11] = molecular target: Integrin alpha-4 (Homo sapiens, UniProt P13612); experiment: VLA-4 integrin allosteric ligands, SAR follow-up, cell-based, LIBS antibody binding, flow cytometry (AID 488791); assay type: functional
[12] = molecular target: 72 kDa type IV collagenase (Homo sapiens, UniProt P08253); experiment: Dose Response validation of uHTS RPN11 inhibitor hits using a MMP-2 Fluorescence assay.; assay type: functional
[13] = molecular target: T3, Carboxy-terminal domain RNA polymerase II polypeptide A small phosphatase 1 (Homo sapiens, UniProt Q9GZU7); experiment: inhibitors of CTDSP1, concentration-response testing, biochemical assay, absorbance-based, actives from ultra-high-throughput screening (AID 540297); assay type: functional
T3 sequence (Q9GZU7 whole entry): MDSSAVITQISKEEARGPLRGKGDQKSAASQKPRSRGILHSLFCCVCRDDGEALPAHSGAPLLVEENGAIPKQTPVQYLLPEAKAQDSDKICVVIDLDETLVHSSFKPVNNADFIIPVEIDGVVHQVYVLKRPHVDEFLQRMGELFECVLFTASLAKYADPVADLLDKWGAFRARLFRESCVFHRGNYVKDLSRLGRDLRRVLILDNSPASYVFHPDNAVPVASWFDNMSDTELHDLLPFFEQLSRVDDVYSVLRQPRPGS

[14] = molecular target: 26S proteasome non-ATPase regulatory subunit 14 (Homo sapiens, UniProt O00487); experiment: inhibition of proteasome subunit RPN11 – biochemical, fluorescence polarization, uHTS hits, confirmation (AID 602368); assay type: functional
[15] = molecular target: Prothrombin (Bos taurus, UniProt P00735); experiment: thrombin inhibition, dose response, biochemical, fluorescence polarization, uHTS hits (AID 602369); assay type: functional
[16] = molecular target: T4, Voltage-gated N-type calcium channel alpha-1B subunit/Amyloid beta A4 precursor protein-binding family A member 1 (Homo sapiens, UniProt Q00975+Q02410); assay type: protein assay
[17] = molecular target: T4, Voltage-gated N-type calcium channel alpha-1B subunit/Amyloid beta A4 precursor protein-binding family A member 1; assay type: protein assay; remark: listed apart in the source
[18] = test system: HEK293; experiment: cells; assay type: functional, cell-based; settings: Homo sapiens
[19] = molecular target: Tumor necrosis factor (Homo sapiens, UniProt P01375); experiment: TNFa-triggered NF-kB activation inhibitors, SAR follow-up, cell-based, revised (AID 2337); assay type: functional
[20] = molecular target: T5, Nucleotide-binding oligomerization domain-containing protein 1 (Homo sapiens, UniProt Q9Y239); experiment: NOD1 signaling inhibitors, SAR follow-up, revised (AID 2333); assay type: functional
T5 sequence (Q9Y239 whole entry): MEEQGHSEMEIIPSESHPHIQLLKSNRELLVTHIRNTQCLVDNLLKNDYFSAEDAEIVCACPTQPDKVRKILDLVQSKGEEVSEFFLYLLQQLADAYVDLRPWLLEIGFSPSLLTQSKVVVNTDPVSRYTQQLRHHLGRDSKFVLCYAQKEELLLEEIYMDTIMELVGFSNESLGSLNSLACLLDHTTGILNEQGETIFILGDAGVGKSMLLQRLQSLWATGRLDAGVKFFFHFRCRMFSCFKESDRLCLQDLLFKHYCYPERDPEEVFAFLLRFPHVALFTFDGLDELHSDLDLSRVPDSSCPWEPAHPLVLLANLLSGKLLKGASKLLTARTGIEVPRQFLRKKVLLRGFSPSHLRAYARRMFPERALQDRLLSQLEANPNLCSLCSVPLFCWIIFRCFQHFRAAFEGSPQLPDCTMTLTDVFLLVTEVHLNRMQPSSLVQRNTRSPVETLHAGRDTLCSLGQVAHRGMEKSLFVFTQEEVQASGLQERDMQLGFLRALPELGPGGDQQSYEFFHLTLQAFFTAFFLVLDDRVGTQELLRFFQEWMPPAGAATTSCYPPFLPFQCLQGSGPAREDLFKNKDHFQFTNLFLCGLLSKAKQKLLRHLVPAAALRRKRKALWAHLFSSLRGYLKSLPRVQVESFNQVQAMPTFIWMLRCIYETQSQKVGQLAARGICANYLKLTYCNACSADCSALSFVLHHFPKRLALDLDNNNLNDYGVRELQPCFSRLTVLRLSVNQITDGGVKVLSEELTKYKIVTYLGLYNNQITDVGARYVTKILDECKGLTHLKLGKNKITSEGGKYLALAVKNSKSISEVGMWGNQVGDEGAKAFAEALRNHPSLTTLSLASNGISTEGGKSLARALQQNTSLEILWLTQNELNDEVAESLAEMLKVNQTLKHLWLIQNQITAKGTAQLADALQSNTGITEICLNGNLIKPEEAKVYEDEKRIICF

[21] = test system: HEK293; experiment: cells; assay type: functional, cell-based; settings: Homo sapiens; remark: listed apart in the source
[22] = test system: HEK293; experiment: cells; settings: Homo sapiens
[23] = test system: HEK293; experiment: NOD2 signaling inhibitors in MDP-stimulated cells, cell-based, uHTS, luminescence (AID 2001); assay type: functional; settings: Homo sapiens
[24] = test system: HEK293; experiment: cells; assay type: functional, cell-based; settings: Homo sapiens; remark: listed apart in the source
[25] = molecular target: Nucleotide-binding oligomerization domain-containing protein 2 (Homo sapiens, UniProt Q9HC29); experiment: NOD2 signaling inhibitors, cell-based, luminescence, uHTS, HEK293 (AID 1566); assay type: functional
[26] = test system: HEK293; experiment: NOD1 signaling inhibitors, primary screen, cell-based, luminescence, uHTS (AID 1578); assay type: functional; settings: Homo sapiens

T1 sequence (Q9UBE0 whole entry): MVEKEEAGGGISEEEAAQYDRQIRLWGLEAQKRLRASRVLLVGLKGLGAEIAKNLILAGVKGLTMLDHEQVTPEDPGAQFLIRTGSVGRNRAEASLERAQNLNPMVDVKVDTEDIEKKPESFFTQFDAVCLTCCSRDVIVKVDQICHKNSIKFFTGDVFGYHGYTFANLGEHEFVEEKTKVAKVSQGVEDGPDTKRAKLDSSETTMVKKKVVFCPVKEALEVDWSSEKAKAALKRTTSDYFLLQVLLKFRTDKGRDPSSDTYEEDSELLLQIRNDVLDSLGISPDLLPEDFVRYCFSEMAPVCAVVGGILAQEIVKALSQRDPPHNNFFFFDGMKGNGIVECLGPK
T1 sequence (Q9UBT2 whole entry): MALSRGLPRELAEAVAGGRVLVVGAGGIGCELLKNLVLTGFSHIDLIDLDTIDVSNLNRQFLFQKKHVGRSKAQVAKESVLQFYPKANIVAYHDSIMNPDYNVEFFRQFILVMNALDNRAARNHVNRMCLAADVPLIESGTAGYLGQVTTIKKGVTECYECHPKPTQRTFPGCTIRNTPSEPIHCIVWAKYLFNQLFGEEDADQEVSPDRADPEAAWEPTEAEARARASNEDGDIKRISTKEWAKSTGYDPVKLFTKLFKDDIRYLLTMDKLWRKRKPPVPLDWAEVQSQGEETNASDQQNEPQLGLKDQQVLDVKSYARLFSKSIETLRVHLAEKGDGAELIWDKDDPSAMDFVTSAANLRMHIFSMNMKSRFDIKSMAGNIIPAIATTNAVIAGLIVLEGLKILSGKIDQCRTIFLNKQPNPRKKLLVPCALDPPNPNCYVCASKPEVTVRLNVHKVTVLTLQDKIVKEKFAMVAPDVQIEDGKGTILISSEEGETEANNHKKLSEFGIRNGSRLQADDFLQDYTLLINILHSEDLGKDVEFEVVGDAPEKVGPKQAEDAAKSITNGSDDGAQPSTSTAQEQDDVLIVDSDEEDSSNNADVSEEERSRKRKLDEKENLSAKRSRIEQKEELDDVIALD
T4 sequence (Q00975 whole entry): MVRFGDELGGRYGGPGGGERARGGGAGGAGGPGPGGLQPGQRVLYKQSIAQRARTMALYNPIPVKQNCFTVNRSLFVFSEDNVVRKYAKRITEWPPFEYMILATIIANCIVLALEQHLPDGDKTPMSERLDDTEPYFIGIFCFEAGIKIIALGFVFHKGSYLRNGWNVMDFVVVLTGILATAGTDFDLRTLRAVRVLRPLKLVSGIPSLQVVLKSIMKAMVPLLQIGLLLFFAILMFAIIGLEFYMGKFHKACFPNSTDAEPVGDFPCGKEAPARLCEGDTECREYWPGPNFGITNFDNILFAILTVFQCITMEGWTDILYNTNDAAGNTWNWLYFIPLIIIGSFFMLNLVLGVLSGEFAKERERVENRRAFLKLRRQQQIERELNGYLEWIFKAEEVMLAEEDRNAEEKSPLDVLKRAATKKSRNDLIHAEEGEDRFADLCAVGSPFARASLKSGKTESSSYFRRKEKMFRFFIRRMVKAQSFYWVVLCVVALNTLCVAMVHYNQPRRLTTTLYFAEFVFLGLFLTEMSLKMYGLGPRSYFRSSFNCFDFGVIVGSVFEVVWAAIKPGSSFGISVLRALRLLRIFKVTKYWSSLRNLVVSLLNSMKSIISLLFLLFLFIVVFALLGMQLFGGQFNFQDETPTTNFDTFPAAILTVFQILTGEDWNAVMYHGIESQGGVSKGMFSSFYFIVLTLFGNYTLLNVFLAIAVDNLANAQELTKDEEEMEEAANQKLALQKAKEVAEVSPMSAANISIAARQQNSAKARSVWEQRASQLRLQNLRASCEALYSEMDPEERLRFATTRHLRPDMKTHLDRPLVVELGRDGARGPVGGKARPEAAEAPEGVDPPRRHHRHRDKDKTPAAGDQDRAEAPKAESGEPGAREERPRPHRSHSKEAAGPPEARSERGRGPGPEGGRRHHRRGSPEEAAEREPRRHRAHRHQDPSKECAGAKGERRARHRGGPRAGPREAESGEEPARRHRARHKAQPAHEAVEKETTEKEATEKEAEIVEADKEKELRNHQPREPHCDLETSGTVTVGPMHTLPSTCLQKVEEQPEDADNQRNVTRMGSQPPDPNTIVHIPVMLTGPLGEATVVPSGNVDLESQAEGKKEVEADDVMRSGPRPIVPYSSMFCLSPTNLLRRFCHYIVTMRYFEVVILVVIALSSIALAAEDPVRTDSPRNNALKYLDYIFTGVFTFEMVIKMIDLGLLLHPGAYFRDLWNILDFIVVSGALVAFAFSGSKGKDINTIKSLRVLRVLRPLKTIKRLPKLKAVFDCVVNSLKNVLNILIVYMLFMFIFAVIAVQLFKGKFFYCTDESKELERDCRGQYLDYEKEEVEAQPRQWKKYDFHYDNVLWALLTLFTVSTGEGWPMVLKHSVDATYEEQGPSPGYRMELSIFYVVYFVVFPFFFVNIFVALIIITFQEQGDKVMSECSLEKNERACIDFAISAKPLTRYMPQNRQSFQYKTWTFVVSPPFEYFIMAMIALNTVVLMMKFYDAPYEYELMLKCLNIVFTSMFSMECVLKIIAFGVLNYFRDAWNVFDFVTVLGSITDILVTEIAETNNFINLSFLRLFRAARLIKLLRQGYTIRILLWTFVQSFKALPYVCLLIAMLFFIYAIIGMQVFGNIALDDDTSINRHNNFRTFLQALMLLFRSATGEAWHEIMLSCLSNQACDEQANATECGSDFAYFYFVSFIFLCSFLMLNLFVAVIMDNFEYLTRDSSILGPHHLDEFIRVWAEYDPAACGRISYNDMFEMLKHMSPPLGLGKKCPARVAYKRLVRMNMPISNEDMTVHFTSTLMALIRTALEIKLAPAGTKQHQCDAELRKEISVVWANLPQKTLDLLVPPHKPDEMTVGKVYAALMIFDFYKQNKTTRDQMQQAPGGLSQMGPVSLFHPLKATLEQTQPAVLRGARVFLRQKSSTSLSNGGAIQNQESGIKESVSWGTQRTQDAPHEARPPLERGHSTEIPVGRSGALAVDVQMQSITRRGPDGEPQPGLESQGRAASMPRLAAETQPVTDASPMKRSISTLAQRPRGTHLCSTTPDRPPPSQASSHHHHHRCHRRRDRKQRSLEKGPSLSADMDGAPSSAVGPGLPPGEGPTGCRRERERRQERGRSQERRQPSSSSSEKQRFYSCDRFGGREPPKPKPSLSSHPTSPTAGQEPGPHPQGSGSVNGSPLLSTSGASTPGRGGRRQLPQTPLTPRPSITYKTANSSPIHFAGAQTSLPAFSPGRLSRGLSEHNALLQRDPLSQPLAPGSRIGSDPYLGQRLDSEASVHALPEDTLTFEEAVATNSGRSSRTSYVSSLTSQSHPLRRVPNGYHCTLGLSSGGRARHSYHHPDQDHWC
T4 sequence (Q02410 whole entry): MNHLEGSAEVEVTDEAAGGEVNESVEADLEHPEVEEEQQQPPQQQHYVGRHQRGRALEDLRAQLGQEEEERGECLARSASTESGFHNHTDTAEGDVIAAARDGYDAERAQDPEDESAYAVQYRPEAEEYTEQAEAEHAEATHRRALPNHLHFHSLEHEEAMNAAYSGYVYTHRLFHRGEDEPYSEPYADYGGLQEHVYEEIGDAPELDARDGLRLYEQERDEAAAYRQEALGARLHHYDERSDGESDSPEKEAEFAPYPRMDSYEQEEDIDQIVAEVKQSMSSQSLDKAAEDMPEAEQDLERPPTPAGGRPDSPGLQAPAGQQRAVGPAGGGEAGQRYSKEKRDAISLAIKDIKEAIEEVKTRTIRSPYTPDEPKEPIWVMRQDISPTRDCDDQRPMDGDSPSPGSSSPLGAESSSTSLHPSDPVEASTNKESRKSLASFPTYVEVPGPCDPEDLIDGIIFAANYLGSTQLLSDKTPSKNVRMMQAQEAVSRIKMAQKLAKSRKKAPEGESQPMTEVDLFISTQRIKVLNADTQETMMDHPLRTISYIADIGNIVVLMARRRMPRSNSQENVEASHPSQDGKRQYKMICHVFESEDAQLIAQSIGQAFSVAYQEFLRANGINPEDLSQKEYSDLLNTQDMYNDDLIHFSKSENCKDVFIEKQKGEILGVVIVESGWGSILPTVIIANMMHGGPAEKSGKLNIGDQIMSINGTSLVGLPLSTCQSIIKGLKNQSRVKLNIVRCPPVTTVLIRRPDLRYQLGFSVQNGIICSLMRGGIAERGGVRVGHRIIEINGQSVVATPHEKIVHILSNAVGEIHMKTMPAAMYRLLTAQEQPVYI
Chain of Trypsin (P00761 whole entry): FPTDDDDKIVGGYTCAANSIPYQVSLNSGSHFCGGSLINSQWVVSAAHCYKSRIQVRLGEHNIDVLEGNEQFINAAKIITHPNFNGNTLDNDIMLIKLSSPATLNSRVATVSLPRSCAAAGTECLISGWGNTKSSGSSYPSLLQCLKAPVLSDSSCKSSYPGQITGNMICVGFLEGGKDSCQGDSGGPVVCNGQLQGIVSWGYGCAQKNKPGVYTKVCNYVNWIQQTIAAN
Chain of 72 kDa type IV collagenase (P08253 whole entry, the tested form may be a part): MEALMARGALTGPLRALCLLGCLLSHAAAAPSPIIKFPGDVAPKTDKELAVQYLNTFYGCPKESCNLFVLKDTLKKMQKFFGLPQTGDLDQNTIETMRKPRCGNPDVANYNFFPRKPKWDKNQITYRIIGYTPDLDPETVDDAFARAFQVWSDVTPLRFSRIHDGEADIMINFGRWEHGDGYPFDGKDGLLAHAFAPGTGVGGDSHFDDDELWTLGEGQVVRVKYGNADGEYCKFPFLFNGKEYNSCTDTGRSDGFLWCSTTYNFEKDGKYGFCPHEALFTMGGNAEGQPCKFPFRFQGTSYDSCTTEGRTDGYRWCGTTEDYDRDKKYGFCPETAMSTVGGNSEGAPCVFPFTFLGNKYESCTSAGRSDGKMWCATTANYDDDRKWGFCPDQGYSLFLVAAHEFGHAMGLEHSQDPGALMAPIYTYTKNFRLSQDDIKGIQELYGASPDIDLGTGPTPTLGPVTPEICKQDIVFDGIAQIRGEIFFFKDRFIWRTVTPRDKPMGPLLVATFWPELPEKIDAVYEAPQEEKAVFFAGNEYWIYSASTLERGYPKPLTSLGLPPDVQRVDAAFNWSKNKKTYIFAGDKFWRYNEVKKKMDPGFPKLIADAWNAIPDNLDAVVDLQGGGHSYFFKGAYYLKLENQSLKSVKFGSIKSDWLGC

O=C(O)c1ccc2c(c1)C1C(Cl)C(Sc3ccccc3[N+](=O)[O-])CC1C(c1cccc([N+](=O)[O-])c1)N2 (stereo not drawn)
IC50 [1]: 23.6 µM (active) | IC50 [2]: 2.26 µM (active)

c1ccc(-n2cnnc2SCc2cn3cccnc3n2)cc1
AC50 [3]: 19.4 µM (active) | AC50 [4]: 30.1 µM (active) | AC50 [5]: 9.66 µM (active)

Oc1ccc(-c2cc(-c3ccc(O)cc3)nc(-c3ccccc3)n2)cc1
EC50 [6]: 19.4 µM (active) | AC50 [7]: 1.81 µM (active) | EC50 [8]: > 60 µM (not active) | EC50 [9]: 3.86 µM (active)

c1ccc2c(-c3ccc(OCCN4CCCCC4)cc3)c(-c3ccsc3)sc2c1
IC50 [10]: > 20 µM (inactive) | AC50 [7]: 1.27 µM (active) | EC50 [11]: > 69.8 µM (inactive)

NS(=O)(=O)c1ccc(NC(=O)c2ccc(-c3ccccc3)cc2)cc1
IC50 [2]: 13.8 µM (active) | IC50 [12]: > 100 µM (inactive) | IC50 [13]: 4.56 µM (active) | IC50 [14]: 8.12 µM (active) | IC50 [15]: 51.4 µM (active) | IC50 [16]: 4.83 µM (active) | IC50 [17]: > 50 µM (inactive)

CC1CCc2c(sc(NC(=O)/C=C/c3cccs3)c2C(=O)O)C1 (stereo not drawn)
IC50 [18]: > 20 µM (inactive) | IC50 [19]: 9.63 µM (active) | IC50 [20]: 1.55 µM (active) | IC50 [21]: > 20 µM (inactive) | IC50 [22]: > 20 µM (inactive) | IC50 [23]: 16.7 µM (inactive) | IC50 [24]: > 20 µM (inactive) | EC50 [25]: > 20 µM (inactive) | EC50 [26]: 6.14 µM (active)
